Measurements taken from paper PMC11596599, “Structure Characterization of Four New Sesquiterpene Pyridine Alkaloids from Tripterygium wilfordii Hook. f. and Anti-Inflammatory Activity Evaluations” (Molecules, 2024).
“Also recorded” adds a separate entry of the source. Read-outs that look alike come from different tables or passages of the source.

Columns and labels:
nitric oxide generation = conditions: cited from earlier work; for IC50: LPS induced RAW264.7 cells ref 24, read-out: IC50 (nitric oxide inhibitory effects); for suppressed nitric oxide generation: LPS induced RAW264.7 cells, concentration of 5 μM ref 23
[1] = Cell viability by CCK-8 method; format: cell-based; conditions: human; HEK293 cells, CCK-8, compounds at 100 μM, 48 h; read-out: Cell Viability (%) (n = 3)
Description: (§1) The effect of the test compounds on the viability of HEK293 cells was determined by the CCK-8 method. Briefly, HEK293 cells were inoculated into 96-well plates with 5 × 10^3 cells per well and incubated at 37 °C with 5% CO2 for 24 h. The cells were treated with test compounds and incubated for 48 h; then, 20 μL of the CCK-8 reagent was added into each well and incubated for another 2 h. The absorbance at 450 nm was measured with a microplate reader to further calculate the cell viability. All experiments were performed in triplicate.

NF-κB pathway [2] = test: NF-κB luciferase reporter assay in LPS-induced HEK293/NF-κB-Luc cells; format: cell-based; conditions: for inhibition at 100 µM / IC50: Homo sapiens; for inhibition at 100 µM: HEK293, 24 h, read-out: NF-κB Inhibitory Rates (%) (n = 3); for IC50: read-out: IC50 (NF-κB inhibition)
Description: Anti-inflammation bioassays were carried out using the HEK293/NF-κB-Luc cells, which were produced as the described procedure. The HEK293/NF-κB-Luc cells were inoculated into 48-well plates and cultured in DMEM supplemented with 10% fetal bovine serum (FBS) for 16 h. Following treatment with the tested compounds, the cells were simulated with 1 μg/mL of LPS for a duration of 24 h. Then, the cells were rinsed twice with phosphate-buffered saline (PBS, pH 7.4) prior to lysing with passive lysis buffer. Then, the inhibitory effects on NF-κB were analyzed using the luciferase assay system according to the manufacturer’s instructions. All the experiments were performed in triplicate.

HEK293 cells = test: Cell viability by CCK-8 method; format: cell-based; conditions: concentration of 100 μM
Description: as §1

[3] = test system: cytokines (TNF-α, IL-1β, IL-8, IL-2, IL-4, and IFN-γ); set-up: method as in PMID 11374948; conditions: 10 μg/mL, IL-8, IL-2, IL-4, IFN-γ, inhibitory rates reaching 100% in some cases ref 25; cited from earlier work
NF-κB pathway [4] = test system: NF-κB pathway; set-up: method as in PMID 36364101; conditions: LPS-induced HEK293/NF-κB-Luc cells; previous study ref 26; read-out: IC50 (inhibitory activity on the NF-κB pathway); cited from earlier work
[5] = compounds at 100 μM, 1 μg/mL LPS 24 h

CC(=O)OC[C@]12[C@H](OC(C)=O)C(=O)[C@@H]3[C@@H](OC(C)=O)[C@@]14O[C@@]3(C)COC(=O)c1cccnc1CCC(C)(OC(C)=O)C(=O)O[C@@H]([C@H](OC(=O)c1ccoc1)[C@@H]2OC(C)=O)[C@]4(C)O (stereo partly shown) [9′-O-acetyl-7-deacetoxy-7-oxowilfortrine]
IC50 (nitric oxide generation): 2.59 ± 3.59 µM

CC(=O)OCC12C(OC(C)=O)C(OC(C)=O)C3C(OC(C)=O)C14OC3(C)COC(=O)c1cnccc1CCC(C)(O)C(=O)OC(C(OC(=O)c1ccco1)C2OC(C)=O)C4(C)O (stereo not shown) [Compound 2, wilfordinine H]
viability at 48 h, 100 µM [1]: 94.2 ± 5.75% | inhibition at 100 µM (NF-κB pathway [2]; [5]): 33.9 ± 2.06%

CC(=O)OCC12C(OC(C)=O)C(O)C3OC(=O)C(C)C(C)c4ccncc4C(=O)OCC4(C)OC1(C(O)C4C(OC(C)=O)C2OC(C)=O)C3(C)O (stereo not drawn) [Compound 4, 1β,7β,8β,11-tetraacetoxy-1β,4α,5α-trihydroxy-3α,15-[2′,3′-dimethyl-3′-(3″-carboxy-4″-pyridyl)propanic acid] dicarbolactone dihydro-β-agarofuran]
viability at 48 h, 100 µM [1]: 100 ± 2.55% | influence on cell viability (in words) (HEK293 cells): no influence on the cell viability; also recorded: no cytotoxicity | inhibition at 100 µM (NF-κB pathway [2]; [5]): > 45% | IC50 (NF-κB pathway [2]): 1.64 µM

CC(=O)OC[C@]12[C@H](OC(C)=O)[C@H](OC(C)=O)[C@@H]3[C@@H](OC(C)=O)[C@@]14O[C@@]3(C)COC(=O)c1cnccc1C(C)C(C)C(=O)O[C@@H]([C@H](O)[C@@H]2OC(C)=O)[C@]4(C)O (stereo partly shown) [Compound 6, wilfordinine A]
suppressed nitric oxide generation (nitric oxide generation): 59.0% | viability at 48 h, 100 µM [1]: 92.4 ± 7.62% | influence on cell viability (in words) (HEK293 cells): no influence on the cell viability; also recorded: no cytotoxicity | inhibition at 100 µM (NF-κB pathway [2]; [5]): > 45% | IC50 (NF-κB pathway [2]): 9.05 µM

CC(=O)OCC12C(OC(C)=O)C(OC(C)=O)C3C(OC(C)=O)C14OC3(C)COC(=O)c1cnccc1C(C)C(C)(O)C(=O)OC(C(OC(C)=O)C2OC(C)=O)C4(C)O (stereo not shown) [Compound 7, wilfordinine B]
viability at 48 h, 100 µM [1]: 95 ± 36.2% | inhibition at 100 µM (NF-κB pathway [2]; [5]): 32.1 ± 5.7%

CC(=O)OCC12C(OC(C)=O)C(OC(C)=O)C3C(OC(C)=O)C14OC3(C)COC(=O)c1cnccc1C(C)C(C)C(=O)OC(C(OC(C)=O)C2OC(C)=O)C4(C)O (stereo not shown) [Compound 8, peritassine A]
suppressed nitric oxide generation (nitric oxide generation): 8.2% | viability at 48 h, 100 µM [1]: 93.9 ± 6.1% | inhibition at 100 µM (NF-κB pathway [2]; [5]): 19.1 ± 3.2%

Cc1ccc(NCCCc2ccccc2)c(N)c1 [JSH23, reference compound]
NF-κB Inhibitory Rates (%) (n = 3) (NF-κB pathway [2]; [5]): 74.56 ± 1.83%

CC(=O)OC[C@]12[C@H](OC(C)=O)[C@H](OC(C)=O)[C@@H]3[C@@H](OC(=O)c4ccccc4)[C@@]14O[C@@]3(C)COC(=O)c1cccnc1C(C)C(C)C(=O)O[C@@H]([C@H](OC(C)=O)[C@@H]2OC(C)=O)[C@]4(C)O (stereo partly shown) [congorinine E-1]
inhibitory effects on the production of cytokines (in words) [3]: significant inhibitory effects

CC(=O)OC[C@]12[C@H](OC(C)=O)[C@H](OC(C)=O)[C@@H]3[C@@H](OC(=O)c4ccccc4)[C@@]14O[C@@]3(C)COC(=O)c1cccnc1C(C)C(C)C(=O)O[C@@H]([C@H](OC(C)=O)[C@@H]2OC(=O)c1ccccc1)[C@]4(C)O (stereo partly shown) [ebenifoline E-11]
inhibitory effects on the production of cytokines (in words) [3]: significant inhibitory effects

CC(=O)OC[C@]12[C@H](OC(C)=O)[C@H](OC(C)=O)[C@@H]3[C@@H](OC(C)=O)[C@@]14O[C@@]3(C)COC(=O)c1cccnc1CCC(C)C(=O)O[C@@H]([C@H](OC(C)=O)[C@@H]2OC(C)=O)[C@]4(C)O (stereo partly shown) [euonine]
suppressed nitric oxide generation (nitric oxide generation): 54.7%

CC(=O)OC[C@]12[C@H](OC(C)=O)[C@H](OC(C)=O)[C@@H]3[C@@H](OC(C)=O)[C@@]14O[C@@]3(C)COC(=O)c1cccnc1CCC(C)(O)C(=O)O[C@@H]([C@H](O)[C@@H]2OC(C)=O)[C@@]4(C)O (stereo partly shown) [tripfordine A]
IC50 (NF-κB pathway [4]): 0.74 µM

CC(=O)OCC12C(OC(C)=O)C(=O)C3C(OC(C)=O)C14OC3(C)COC(=O)c1cccnc1CCC(C)(OC(=O)c1ccoc1)C(=O)OC(C(O)C2OC(C)=O)C4(C)O (stereo not shown) [tripterygiumine S]
IC50 (nitric oxide generation): 23.8 ± 4.38 µM

CC(=O)OC[C@]12[C@H](OC(C)=O)[C@H](OC(C)=O)[C@@H]3[C@@H](OC(C)=O)[C@@]14O[C@@]3(C)COC(=O)c1cccnc1CCC(C)C(=O)O[C@@H]([C@H](OC(=O)c1ccccc1)[C@@H]2OC(C)=O)[C@]4(C)O (stereo partly shown) [wilforine]
IC50 (NF-κB pathway [4]): 15.7 µM

wilfordatine E
IC50 (NF-κB pathway [4]): 8.75 µM
